Values after ≈ are worked out from the molar mass of the structure shown. Active and inactive are the calls of the source. No rule for the calls is given here.
Key:
Staphylococcus aureus = experiment: Antimicrobial activity against Staphylococcus aureus CIP 4.83 after 18 to 24 hrs by broth microdilution method; type: functional
Enterococcus hirae = experiment: Antimicrobial activity against Enterococcus hirae CIP 5855 after 18 to 24 hrs by broth microdilution method; type: functional
Pseudomonas aeruginosa = experiment: Antimicrobial activity against Pseudomonas aeruginosa CIP 82.118 after 18 to 24 hrs by broth microdilution method; type: functional
Escherichia coli = experiment: Antimicrobial activity against Escherichia coli CIP 53126 after 18 to 24 hrs by broth microdilution method; type: functional
[1] = system: Mycobacterium tuberculosis; experiment: Antimycobacterial activity against Mycobacterium tuberculosis H37Rv assessed as growth inhibition at 0.1 uM after 6 days by MTT colorimetric microassay; type: functional, organism-based

Structure (SMILES) | MBC (Staphylococcus aureus) | MIC (Staphylococcus aureus) | MBC (Enterococcus hirae) | MIC (Enterococcus hirae) | MBC (Pseudomonas aeruginosa) | MIC (Pseudomonas aeruginosa) | MBC (Escherichia coli) | MIC (Escherichia coli) | growth inhibition (GI) [1]
CCCCCCCCCCCCCC(=O)N1CCN(c2cc3c(cc2F)c(=O)c(C(=O)O)cn3C2CC2)CC1 | 125 µM (≈ 67.7 µg/mL) | 125 µM (≈ 67.7 µg/mL) | 250 µM (≈ 135 µg/mL) | 62.5 µM (≈ 33.9 µg/mL) | 250 µM (≈ 135 µg/mL) | 125 µM (≈ 67.7 µg/mL) | 500 µM (≈ 271 µg/mL) | 125 µM (≈ 67.7 µg/mL) | inactive
CCCCCCCCCCCCCCCC(=O)OCC(=O)N1CCN(c2cc3c(cc2F)c(=O)c(C(=O)O)cn3C2CC2)CC1 | 500 µM (≈ 314 µg/mL) | 62.5 µM (≈ 39.2 µg/mL) | 500 µM (≈ 314 µg/mL) | 125 µM (≈ 78.5 µg/mL) | 250 µM (≈ 157 µg/mL) | 125 µM (≈ 78.5 µg/mL) | 500 µM (≈ 314 µg/mL) | 125 µM (≈ 78.5 µg/mL) | inactive
CCCCCCCCCOC(=O)N1CCN(c2cc3c(cc2F)c(=O)c(C(=O)O)cn3C2CC2)CC1 | 125 µM (≈ 62.7 µg/mL) | 62.5 µM (≈ 31.3 µg/mL) | 250 µM (≈ 125 µg/mL) | 62.5 µM (≈ 31.3 µg/mL) | 250 µM (≈ 125 µg/mL) | 125 µM (≈ 62.7 µg/mL) | 500 µM (≈ 251 µg/mL) | 125 µM (≈ 62.7 µg/mL) | inactive
CCCCCCNC(=O)c1cn2c3c(c(N4CCN(C)CC4)c(F)cc3c1=O)OC[C@@H]2C | 250 µM (≈ 111 µg/mL) | 250 µM (≈ 111 µg/mL) | 250 µM (≈ 111 µg/mL) | 125 µM (≈ 55.6 µg/mL) | 250 µM (≈ 111 µg/mL) | 62.5 µM (≈ 27.8 µg/mL) | 500 µM (≈ 222 µg/mL) | 125 µM (≈ 55.6 µg/mL) | inactive
CCCCCCCCCCOC(=O)N1CCN(c2cc3c(cc2F)c(=O)c(C(=O)O)cn3C2CC2)CC1 | 62.5 µM (≈ 32.2 µg/mL) | 62.5 µM (≈ 32.2 µg/mL) | 500 µM (≈ 258 µg/mL) | 62.5 µM (≈ 32.2 µg/mL) | 250 µM (≈ 129 µg/mL) | 125 µM (≈ 64.5 µg/mL) | 500 µM (≈ 258 µg/mL) | 125 µM (≈ 64.5 µg/mL) | inactive
CCCCNC(=O)c1cn2c3c(c(N4CCN(C)CC4)c(F)cc3c1=O)OC[C@@H]2C | 125 µM (≈ 52.1 µg/mL) | 125 µM (≈ 52.1 µg/mL) | 250 µM (≈ 104 µg/mL) | 125 µM (≈ 52.1 µg/mL) | 250 µM (≈ 104 µg/mL) | 62.5 µM (≈ 26 µg/mL) | 62.5 µM (≈ 26 µg/mL) | 62.5 µM (≈ 26 µg/mL) | inactive
O=C(O)c1cn(C2CC2)c2cc(N3CCN(C(=O)CCl)CC3)c(F)cc2c1=O | ≤ 0.97 µM | ≤ 0.97 µM | 3.9 µM (≈ 1.59 µg/mL) | 3.9 µM (≈ 1.59 µg/mL) | 250 µM (≈ 102 µg/mL) | 31.2 µM (≈ 12.7 µg/mL) | ≤ 0.97 µM | ≤ 0.97 µM | inactive
O=C(O)c1cn(C2CC2)c2cc(N3CCN(C(=O)CCCCCCCCCCCCCCC(=O)N4CCN(c5cc6c(cc5F)c(=O)c(C(=O)O)cn6C5CC5)CC4)CC3)c(F)cc2c1=O | 15.6 µM (≈ 14.2 µg/mL) | 1.9 µM (≈ 1.73 µg/mL) | 500 µM (≈ 457 µg/mL) | 62.5 µM (≈ 57.1 µg/mL) | 250 µM (≈ 228 µg/mL) | 62.5 µM (≈ 57.1 µg/mL) | 500 µM (≈ 457 µg/mL) | 62.5 µM (≈ 57.1 µg/mL) | inactive
CCCCCCCCOC(=O)N1CCN(c2cc3c(cc2F)c(=O)c(C(=O)O)cn3C2CC2)CC1 | 62.5 µM (≈ 30.5 µg/mL) | 7.8 µM (≈ 3.8 µg/mL) | 125 µM (≈ 60.9 µg/mL) | 125 µM (≈ 60.9 µg/mL) | 250 µM (≈ 122 µg/mL) | 125 µM (≈ 60.9 µg/mL) | 500 µM (≈ 244 µg/mL) | 125 µM (≈ 60.9 µg/mL) | inactive
CCCCCCCCCCCCOC(=O)N1CCN(c2cc3c(cc2F)c(=O)c(C(=O)O)cn3C2CC2)CC1 | 125 µM (≈ 68 µg/mL) | 125 µM (≈ 68 µg/mL) | 500 µM (≈ 272 µg/mL) | 62.5 µM (≈ 34 µg/mL) | 125 µM (≈ 68 µg/mL) | 125 µM (≈ 68 µg/mL) | 250 µM (≈ 136 µg/mL) | 125 µM (≈ 68 µg/mL) | inactive

From ChEMBL document CHEMBL1914411, “Synthesis of lipophilic dimeric C-7/C-7-linked ciprofloxacin and C-6/C-6-linked levofloxacin derivatives. Versatile in vitro biological evaluations of monomeric and dimeric fluoroquinolone derivatives as potential antitumor, antibacterial or antimycobacterial agents” (Eur J Med Chem, 2011)
